Data from paper PMC2120067 (The Journal of Cell Biology, 1994).

What was measured:
[1] = Spectroscopic analysis of copper binding; settings: saturable; not displaced with 100-fold excesses of Na, K, Ca, or Mg ions; not shown
[2] = test system: chicken chorioallantoic membrane (CAM); test: CAM angiogenesis assay; assay type: in vivo; settings: methylcellulose disk on chick CAM
[3] = Magnesium-binding control by electrospray mass spectrometry; settings: 20 µM KGHK + 50 µM MgSO4 in 20 mM NH4HCO3 (pH 7.5), electrospray MS
[4] = Copper-binding study by electrospray mass spectrometry; settings: 10 µM KGHK and KGRK mixed with 8 µM Cu2+, electrospray MS
[5] = test system: angiogenic bovine aortic endothelial (BAE) cells; test: Quantitation of endothelial cord formation; assay type: cell-based
[6] = test system: new vessel growth in vivo; settings: ref Raju et al., 1982; cited from earlier work

KGHK [N-lysyl-L-glycyl-L-histidyl-L-lysine- OH]
Change of absorbance on addition of copper ions [1]: increase in absorbance at 580 nm
Lowest application eliciting angiogenic activity in the CAM [2]: 50 ng/disk
Formation of 1:1 complex with magnesium [3]: did not form
Direct competition for limiting copper ions [4]: all copper ions were sequestered in a KGHK:Cu complex

N-gly- cyl-L-histidyl-L-lysine-OH [GHK]
Stimulation of endothelial cord formation, peptide pretreated with CuSO4 ([5]; pretreatment of peptide with CuSO4, not shown): significant angiogenic stimulation
Stimulation of new vessel growth in vivo [6]: little effect

bovine serum albumin: control protein [reference compound]
Stimulation of endothelial cord formation ([5]; bovine serum albumin, concentration not given): no stimulatory effect
